Data on 1 molecule can be found in patent US11299467B2 (Antabio SAS, priority 2017, dated 2022).

SMILES strings stand for the structures. Converted amounts (≈) assume the structure as drawn. Where two headings read alike, the source gives them in different places.

The test system of test [1] is NTBC035-2 (K. pneumoniae strain expressing NDM-1, CMY-4 and SHV-11). Put plainly: Meropenem MIC, broth micro-dilution, NTBC035-2. The conditions noted are these: Klebsiella pneumoniae, read-out: MIC mero. Type of test: cell-based. The method, then:
(§1) The experiments were carried out using the ‘broth micro-dilution method’ according to the protocols M07-A8 established by the Clinical Laboratory Standards Institute (CLSI). Serial dilutions of the β-lactam antibiotic (Meropenem) were prepared in 96-well plates in cation-adjusted Mueller-Hinton broth (CAMHB); the concentration range was defined from 0.03 mg/L to 512 mg/L. The compounds were added at a constant concentration of 8 μg/mL. A bacterial inoculum of each strain (clinical isolates) was adjusted to a 0.5 McFarland turbidity standard in physiologic serum (0.9% NaCl), then diluted 1:100 in CAMHB and added to each well to give a final bacterial cell number of 5×10^5 CFU/well. After incubation for 18-20 hours in a heating chamber at 37° C., the growth inhibition was evaluated by the absence of any bacterial development.
(§2) Compounds of the invention were tested at a constant concentration of 8 μg/mL. […]
(§3) Experiments were carried out using the ‘broth micro-dilution method’ according to the protocols M07-A8 established by the Clinical Laboratory Standards Institute (CLSI). […] After incubation for 18-20 hours in a heating chamber at 37° C., the growth inhibition was evaluated by the absence of any bacterial development. […]
On the technique in general: In broth dilution the organism is exposed to a series of concentrations in liquid medium.

Test [2] concerns NTBC123 (K. pneumoniae strain expressing NDM-1). Put plainly: Meropenem MIC, broth micro-dilution, NTBC123. The test is classed as cell-based. The conditions noted are these: Klebsiella pneumoniae, read-out: MIC mero. The method, then: as §1, §2, §3
Test [3] has as its system NTBC091-1 (E. coli strain expressing KPC-2 and TEM-1). Briefly: Meropenem MIC, broth micro-dilution, NTBC091-1. Type of test: cell-based. Conditions: Escherichia coli, read-out: MIC mero. The method, then:
as §1, with “Experiments” for “The experiments”, “meropenem (mero)” for “the β-lactam antibiotic (Meropenem)”, “compounds (the compound of Example 2, above, and/or WCK4234)” for “compounds”, “the” for “a constant”, “indicated in the table below.” for “of 8 μg/mL.”
(§4) NTBC091-1 (E. coli strain expressing KPC-2 and TEM-1); NTBC093 (E. cloacae strain expressing KPC-2 and TEM-1); NTBC096-1 (K. pneumonia strain expressing OXA-181 and SHV-11); NTBC099 (K. pneumonia strain expressing KPC-3, SHV-11 and TEM-1); and NTBC189 (K. pneumonia strain expressing TEM-OSBL, CTX-M-14 and OXA-48).

The subject of test [4] is NTBC093 (E. cloacae strain expressing KPC-2 and TEM-1). Briefly: Meropenem MIC, broth micro-dilution, NTBC093. Type of test: cell-based. The conditions noted are these: Enterobacter cloacae, read-out: MIC mero. The method, then:
as §1, with “Experiments” for “The experiments”, “meropenem (mero)” for “the β-lactam antibiotic (Meropenem)”, “compounds (the compound of Example 2, above, and/or WCK4234)” for “compounds”, “the” for “a constant”, “indicated in the table below.” for “of 8 μg/mL.”
as §4

For test [5], the system named is NTBC096-1 (K. pneumonia strain expressing OXA-181 and SHV-11). Put plainly: Meropenem MIC, broth micro-dilution, NTBC096-1. The test is classed as cell-based. The conditions noted are these: Klebsiella pneumoniae, read-out: MIC mero. The method, then:
as §1, with “Experiments” for “The experiments”, “meropenem (mero)” for “the β-lactam antibiotic (Meropenem)”, “compounds (the compound of Example 2, above, and/or WCK4234)” for “compounds”, “the” for “a constant”, “indicated in the table below.” for “of 8 μg/mL.”
as §4

Test [6] concerns NTBC185 (K. pneumonia strain expressing SHV-OSBL, TEM-OSBL, NDM-1 and OXA-48). Briefly: Meropenem MIC, broth micro-dilution, NTBC185. The test is classed as cell-based. Conditions: Klebsiella pneumoniae, read-out: MIC mero. The protocol: as §1, with “Experiments” for “The experiments”, “meropenem (mero)” for “the β-lactam antibiotic (Meropenem)”, “compounds (the compound of Example 2, above, and/or WCK4234)” for “compounds”, “the” for “a constant”, “indicated in the table below.” for “of 8 μg/mL.”
(§5) NTBC019 (K. pneumonia strain expressing NDM-1, CTX-M-15 and OXA-181); NTBC185 (K. pneumonia strain expressing SHV-OSBL, TEM-OSBL, NDM-1 and OXA-48); NTBC186 (K. pneumonia strain expressing ACT-TYPE, VIM-1 and OXA-48); NTBC187 (K. pneumonia strain expressing SHV-OSBL, NDM-1 and OXA-48); and NTBC188 (K. pneumonia strain expressing NDM-1 and KPC-2).

Test [7] has as its system NTBC186 (K. pneumonia strain expressing ACT-TYPE, VIM-1 and OXA-48). Briefly: Meropenem MIC, broth micro-dilution, NTBC186. The test is classed as cell-based. Conditions: Klebsiella pneumoniae, read-out: MIC mero. The protocol: as §1, with “Experiments” for “The experiments”, “meropenem (mero)” for “the β-lactam antibiotic (Meropenem)”, “compounds (the compound of Example 2, above, and/or WCK4234)” for “compounds”, “the” for “a constant”, “indicated in the table below.” for “of 8 μg/mL.”
as §5

Test [8] relates to NTBC188 (K. pneumonia strain expressing NDM-1 and KPC-2). Briefly: Meropenem MIC, broth micro-dilution, NTBC188. The test is classed as cell-based. Conditions: Klebsiella pneumoniae. The method, then:
as §1, with “Experiments” for “The experiments”, “meropenem (mero)” for “the β-lactam antibiotic (Meropenem)”, “compounds (the compound of Example 2, above, and/or WCK4234)” for “compounds”, “the” for “a constant”, “indicated in the table below.” for “of 8 μg/mL.”
as §5
Experiments were conducted as described above. Compounds (the compounds of Examples 2 and 26) were tested at 8 μg/mL. […] MIC values were determined for […]

Another test concerns K. pneumoniae NTBC104. Briefly: In vivo efficacy, mouse thigh infection with K. pneumoniae NTBC104. The conditions noted are these: meropenem at 30 mg/kg alone, 9 hours post infection. The protocol: Mice were infected in the thigh with K. pneumoniae NTBC104. […] The MIC of meropenem in the presence of 8 ug/mL of the compound of Example 2 is 4 ug/mL.
At the end of the experiment (9 hours post infection) the animals were sacrificed and the numbers of colony forming units (CFUs) were measured in order to quantify bacterial load (extent of the infection).

Test [9] has as its system panel of clinical Enterobacteriacae strains expressing NDM enzymes (196 isolates). Briefly: Extended MIC profiling vs MBL-expressing clinical strains (meropenem potentiation). The test is classed as cell-based. Conditions: 196 NDM-expressing clinical isolates. The source says:
By contrast, the same concentration of meropenem alone is only capable of stopping the growth of <1% of the strains and within the parameters of the experiment the cessation of growth of 90% of all strains could not be achieved with meropenem alone.
To assess the coverage and potentiation of meropenem by compounds of the invention, the susceptibility of around 200 clinical isolates was examined. The criteria for selection into the panel was that the clinical strain was resistant to carbapenems, but only expressing NDM enzyme variants and not serine betalactamase enzymes with carbapenemase activity such as KPC or OXA.

For the molecule `C[C@@H](O)[C@H]1C(=O)N2C(C(=O)O)=C(S[C@@H]3CN[C@H](C(=O)N(C)C)C3)[C@H](C)[C@H]12` [Meropenem], the MIC – broadly, the least concentration at which growth counts as inhibited – in test [1] is 64 µg/mL; in [2], 128 µg/mL; in test [3], 4 µg/mL (≈ 10.4 µM); in test [4], 128 µg/mL (≈ 334 µM); in test [5] it was 16 µg/mL (≈ 41.7 µM); in test [6] it was 128 µg/mL (≈ 334 µM). Moreover, the MIC in [7] is 16 µg/mL (≈ 41.7 µM); in test [8] (read-out: MIC mero), 32 µg/mL (≈ 83.4 µM); in [8] (read-out: MIC, NTBC188), 8 to 512 µg/mL (≈ 20.9 to 1340 µM). The “bacterial load (CFUs)” value with K. pneumoniae NTBC104 is “reduced bacterial load slightly”. The “strains whose growth is stopped by the same concentration (8 ug/mL) of meropenem alone” value in [9] is less than 1%.
